Our source for the IC50 values is ChEMBL document CHEMBL5726083, “Perfluorinated cyclopropyl fused 1,3-oxazin-2-amine compounds as beta-secretase inhibitors and methods of use” (2017).

In this test the target is Cathepsin D (Homo sapiens, UniProt P07339). Put plainly: In Vitro Enzymatic FRET Assay: Recombinant Cat D was expressed in CHO cells. The assay buffer for CathepsinD is 0.05 M citrate pH 3.5, 10% DMSO final, 5 mM CHAPS. The Cat D enzyme (9 nM) is pre-incubated for one hour with inhibitors, typically in about 1 uL of DMSO according to a serial dilution, is added thereto. The assays are effectively started by the addition of different FRET substrates (20 nM for Cat D) and the combination is incubated for one hour. The FRET assay is terminated with by addition of Tris buffer, which raises the pH to neutrality, and the fluorescence is determined. The FRET substrate is a peptide with commercially available fluorophore and quencher, on opposite sides of the BACE cleavage site. […] Proteolytic cleavage of the FRET substrate releases quenching of fluorescence (Cat D excitation 500 nm and emission 580 nm). Type of test: cell-based.
Sequence of Cathepsin D (P07339 65-162 limits assumed): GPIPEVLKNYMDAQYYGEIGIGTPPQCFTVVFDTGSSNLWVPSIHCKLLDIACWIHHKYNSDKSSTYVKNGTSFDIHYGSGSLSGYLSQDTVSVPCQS
Sequence of Cathepsin D (P07339 169-412 limits assumed): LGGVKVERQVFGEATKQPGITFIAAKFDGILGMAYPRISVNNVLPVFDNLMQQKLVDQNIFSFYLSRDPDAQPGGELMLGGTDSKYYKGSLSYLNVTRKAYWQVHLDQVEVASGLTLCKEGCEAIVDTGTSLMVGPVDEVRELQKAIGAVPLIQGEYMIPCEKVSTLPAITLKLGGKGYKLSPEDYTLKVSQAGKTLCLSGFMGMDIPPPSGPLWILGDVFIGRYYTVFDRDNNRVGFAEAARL

Broadly, the IC50 is the concentration that inhibits the measured activity by half. Regarding `Cc1cc(OC(F)F)cnc1C(=O)Nc1ccc(Cl)c(C2(C(F)F)N=C(N)O[C@@H]3C[C@@H]32)c1` (some centres not stated), the IC50 came to 958 µM.

For `NC1=N[C@](CF)(c2cc(NC(=O)c3ccc(Cl)cn3)cc(F)c2F)[C@H]2CC2O1` (mixture of isomers), the IC50 worked out at 229 µM.
